Reference: paper PMC4298241 (ChemMedChem, 2014)
Where two headings read alike, the source gives them in different places.

Legend:
T. brucei (BSF) = assay: Alamar Blue viability test, T. brucei bloodstream form; type: cell-based; conditions: Trypanosoma brucei
[1] = test system: KB 3-1 cervix cancer cell line; conditions: read-out: cytotoxicity IC50; cited from earlier work

Compound: CCCCCCC1CCCC(C2CCC([C@H]3CC[C@H]([C@H](O)CCCCCCCCCCCCC4=C[C@H](C)OC4=O)O3)O2)O1 (stereo partly drawn) [Compound 6, chamuvarinin]
- EC50 (T. brucei (BSF); read-out: T.brucei(BSF) EC50): 1400 ± 100 nM
- EC50 (T. brucei (BSF); read-out: pEC50 (converted)): 1380 nM
- IC50 [1]: 0.8 nM
